Where only a bound is given, the exact number is not on record here.

The term melting point denotes the temperature, or range, at which the solid turns liquid. `CCCc1c(OCCCCCOc2ccc(OCCCC(=O)O)cc2CCC(=O)O)ccc2c1OCCC2=O` registered a melting point of 119 to 124 °C.
Under `CS(=O)(=O)c1ccc(-c2[nH]c3ccc(Br)cc3c2-c2ccccc2)cc1` stands 262 to 264 °C; under `COC1c2ccccc2C(=O)N1CCN1CCC(Cc2c[nH]c3ccc(F)cc23)CC1` (racemic), 175 °C; under `Nc1ncc2cc(-c3c(Cl)cccc3Cl)c(=O)n(Cc3cccc(Br)c3)c2n1`, 215 °C.
`CCOC(=O)N1CCN(c2ccc(C(=O)CCc3ccc(NC4=NCCN4)cc3)cc2)CC1` yielded a melting point of 150 to 151 °C.
Turning to `Nc1ccc2c(c1)CCN(C(=O)C(F)(F)F)CC2`, the melting point was 160 to 162 °C.
Compound `Cc1oc2c(C)c(C)c(NC(=O)c3ccc(F)cc3)c(C)c2c1-c1ccc(C(C)C)cc1` yielded a melting point of 242 to 245 °C.
Under `CC(=O)Nc1nc(C=O)cs1` stands 196 to 199 °C.
In turn, `CN(O)C(=O)N1CCC(C(c2ccccc2)c2ccccc2)CC1` had a melting point of 143 to 144 °C.
With `O=C(O)C1=Cc2cc(OC(F)(F)F)ccc2NC1C(F)(F)F` (configuration not stated), the melting point fell in the range of 128 to 129 °C.
`CCCNC(=O)Nc1nn(Cc2ccccc2)cc1C(=O)OCC` yielded a melting point of 100 to 101 °C.
With `N#CCCNC(=O)Cc1c(C(=O)c2ccccc2)[nH]c2cc(Cl)ccc12`, the melting point lay in the range of 233 to 234 °C.
In the case of `CC(C)c1nc(N(C)S(C)(=O)=O)nc(-c2ccc(F)cc2)c1/C=C/C=O`, the melting point was determined as 86.5 °C.
The same measure for `CCCc1nn(-c2ccc(C(F)(F)F)cn2)cc1CCCOc1ccc(CCC(=O)O)c(C)c1`: 124 to 126 °C.
Turning to `COc1cc2c(cc1OC)C(C(=O)O)SCC2` (configuration not stated), the melting point lay in the range of 167 to 169 °C.
With `Cc1ccc2c(c1)C=Cc1cc(C)c(C)cc1C2c1cn(Cc2ccc(C(=O)O)o2)c(=O)[nH]c1=S` (configuration not stated), the melting point was 292 °C.
With `COc1ccc(CC(=O)N2CCN(C(=S)SC)CC2)c(OC)c1OC`, the melting point lay within 119 to 120 °C.
As for `NS(=O)(=O)c1ccc(-c2cccc(-c3nc(-c4ccc(C(F)(F)F)c(F)c4)cc(C(F)(F)F)n3)c2)s1`, the melting point worked out at 214 °C.
For `CC(=O)NC[C@H]1CN(c2ccc(N3CCC(O)(CO)CC3)c(F)c2)C(=O)O1`, the melting point fell in the range of 98 to 100 °C.
In turn, `COc1cccc(CC(=O)O)c1OCCCc1cn(-c2ccc(C#N)cn2)nc1C(C)C` displayed a melting point of 144 to 145 °C.
As to `OCC(O)COCCCCCCCCOc1ccc(-c2ccccc2)cc1` (configuration not stated), the melting point was 94 to 96 °C.
Take `O=C1Nc2cccc(O)c2C12COc1cc3c(cc12)OCCO3` (configuration not stated): the melting point was above 250 °C.
Under `CCOC(=O)C(C)c1cnc(Cl)c2cc(OC)ccc12` (configuration not stated) stands 126 to 128 °C.
The same measure for `CCCN1C(=O)C2(CC(C)C)CC(c3ccc([N+](=O)[O-])cc3)(C2)C1=O`: 87 to 88 °C; for `CCCCCCCCCCCCC1=C(O)C(=O)c2ccccc2C1=O`: 85 to 87 °C.
Compound `CC(C)CN/C(=C1/Sc2ccccc2C1=O)c1ccccc1` showed a melting point of 125 to 126 °C.
Compound `CC(C)Cn1cnc2c1c1ccccc1n1nnnc21` gave a melting point of 208 to 212 °C.
`CC(C)CC1(CC(=O)NO)C(=O)N(CCc2ccccc2)C(=O)N1C` (configuration not stated) had a melting point of 127 to 129 °C.
The same measure for `O=Cc1c(Cl)nc(-c2ccccc2)n1Cc1ccccc1`: 117 to 118 °C; for `CCC1Cc2ccc(NC(=N)c3cccs3)cc2CN1C` (configuration not stated): 125 to 126 °C; for `CCOC(=O)CN(C)S(=O)(=O)c1c(C(=O)OC)sc2cc(C)ccc12`: 86 to 87 °C.
As to `CCOC(=O)C(C#N)=CNc1ccc(C)cn1`, the melting point was 170 to 172 °C.
Under `CCN1C(=O)C2CC(c3ccc(N)cc3)(C2)C1=O` stands 159 to 162 °C; under `CCCN(CCC)C(=O)C(CO)Nc1nc(-c2ccccc2)nc2c1CCCC2` (configuration not stated), 119 to 120 °C; under `CC(C)C(C(=O)O)c1ccc([N+](=O)[O-])cc1` (configuration not stated), 124 to 127 °C.
`Nc1ccc(CC(=O)N2CCC(c3[nH]nc4c3C(=O)c3c(NC(=O)NN5CCOCC5)cccc3-4)CC2)cc1` registered a melting point of 177 to 179 °C.
Compound `CCOC(OCC)C(=O)Nc1ccc(Cl)cc1N` showed a melting point of 89 to 90 °C.
Take `CNC(=O)[C@@H]1C[C@H](OC)CN1S(=O)(=O)c1ccc(Cl)c(COc2cccc3c(-n4ccnc4)cc(C)nc23)c1Cl`: the melting point came out at 64 °C.
In turn, `Cc1cc(Cl)c([N+](=O)[O-])c(=O)[nH]1` showed a melting point of 225 °C.
`COC(=O)c1cc([N+](=O)[O-])nn1C` displayed a melting point of 65 to 66 °C.
The same measure for `CCC1(CCCCN2CCN(c3ccccn3)CC2)C(=O)Nc2ccccc21` (configuration not stated): 131 to 133 °C.
On to `CCCOc1cc2c(cc1C=O)C(C)(C)CCC2(C)C`, for which the melting point was 51 to 52 °C.
Turning to `CCC(=O)Nc1cccc(-c2ccnc3c(C(=O)c4ccco4)cnn23)c1`, the melting point was in the range of 185 to 186 °C.
For the compound `COc1ccc(-c2cc3nccnc3[nH]2)cc1OC`, the melting point lay within 212 to 214 °C.
The same measure for `N#Cc1ccc(Cl)c(C=NO)c1`: 191 to 193 °C; for `CC(C)C[C@@H](CO)NC(=O)[C@H](Cc1c[nH]cn1)NC(=O)[C@H](CSSc1ncccc1[N+](=O)[O-])NC(=O)OC(C)(C)C`: 185 to 188 °C.
Compound `CCNc1nc(NCCN2CCCC2)nc(Nc2ccc(OC)cc2)n1` registered a melting point of 29 to 31 °C.
For the compound `OCC1OC(n2cnc3c(NNC4CCOc5ccccc54)ncnc32)C(O)C1O` (configuration not stated), the melting point is 125 to 130 °C.
Compound `CC1COc2c(N3CCNC(c4ccccc4)C3)c(F)cc3c(=O)c(C(=O)O)cn1c23` (configuration not stated) had a melting point of 238 to 244 °C.
Under `CCN(C(C)=O)c1cccc(-c2ccnc3c(Cl)cnn23)c1` stands 157 to 159 °C.
The same measure for `CCc1coc2c(-c3ccc(S(C)(=O)=O)cc3)c(-c3ccc(F)cc3)nn12`: 205 to 208 °C; for `CC(C)c1[nH]n(-c2c(Cl)cc(Cl)cc2Cl)c2nc(Cc3ccc(C(=O)O)cc3)nc(=O)c1-2`: 294 to 295 °C.
On to `CC1CCCCN1C(=O)C1Cc2ccccc2N1c1ccc(=O)n(C)n1` (configuration not stated), for which the melting point lay within 96 to 98 °C.
As to `CC(C)CC(=O)Nc1cccc(-c2ccnc3c(C(=O)c4ccoc4)cnn23)c1`, the melting point was in the range of 144 to 146 °C.
On to `CCOC(=O)c1ccc(NC(=O)N2CCc3cc(SC)c(C(F)(F)F)cc32)cc1`, for which the melting point is above 200 °C.
The same measure for `c1ccc(-c2nc(-c3ccccc3)c(-c3ccccc3)s2)cc1`: 84 to 85.5 °C.
`CCC(CC)Nc1n[nH]c(=O)c2c1ccn2-c1c(C)cc(C)cc1C` registered a melting point of 183 to 185 °C.
Take `Cc1oc(-c2ccccc2)nc1COc1ccc(COc2cccc(CC(=O)O)c2)cc1`: the melting point was 159 to 160 °C.
Take `COCCOc1ccc(COC(=O)NS(=O)(=O)CCC(C)C)c(Oc2ncc(C(F)(F)F)cc2Cl)c1`: the melting point was 122 to 124 °C.
Under `CC1=C(O)C(=O)C(C)(CO)O1` (configuration not stated) stands 124 to 125 °C; under `O=[N+]([O-])c1sc(Nc2c(Cl)cccc2Cl)nc1Cl`, 141 °C; under `Clc1ccc(-c2onc3c(CBr)cccc23)cc1`, 153 to 155 °C.
`CCCn1cc(Cc2ccc(C(=O)NS(=O)(=O)c3ccccc3C)cc2OC)c2cc(CCCC(=O)N(C)C)ccc21` returned a melting point of 94 to 96 °C.
Turning to `CNC(=C[N+](=O)[O-])NCC(O)COc1cccc(CN2CCCCC2)c1` (configuration not stated), the melting point was in the range of 45 to 50 °C.
Regarding `CN(C)CC(C)(CSC(=S)N(C)C)[N+](=O)[O-]` (configuration not stated), the melting point fell in the range of 75.5 to 78 °C.
`Cc1ccccc1-c1cc(-c2ccc(F)cc2)c(C=C(Br)Br)c(C(C)C)n1`: the melting point was in the range of 108 to 110 °C.
In turn, `O=C1COc2ccc(-c3cccnc3-c3ccccc3)cc2N1` returned a melting point of 176 to 178 °C.
The compound `Nc1cccc(C(=O)c2ccc(Oc3ccccc3)c(N)c2)c1` registered a melting point of 112 to 113 °C.
The same measure for `O=C(O)CNC1CCc2ccc(O)cc21` (configuration not stated): 260 °C; for `O=C(Nc1nccs1)c1nc(-c2ccc(C(F)(F)F)cc2)[nH]c1-c1ccc(F)cc1`: above 250 °C; for `Cc1[nH]c2ccccc2c1CCN1CCN(NC(=O)c2ccccc2)CC1`: 130 to 133 °C.
For the compound `C=C1CCC2C3CCc4cc(OC(C)=O)ccc4C3CCC12C` (configuration not stated), the melting point was 77 to 79 °C.
Compound `CNC(=O)Nc1nnc(C(F)(F)F)s1` gave a melting point of 192 to 194 °C.
As to `CSc1nn(-c2c(Cl)cc(C(F)(F)F)cc2Cl)c2ncnc(-c3ccccc3Cl)c12`, the melting point lay in the range of 156 to 158 °C.
Consider `CCOC(=O)Cc1cc(C)c(C(=O)c2ccccc2)n1C`, for which the melting point fell in the range of 78 to 80 °C.
`CCOC(=O)c1c(C(C)(C)O)nc(SCC)n1Cc1ccc(-c2ccccc2-c2nnn[nH]2)cc1` yielded a melting point of 185 to 188 °C.
`COc1c(C)cc(C)c(C2CC(=O)C=C(O)C2)c1C` (configuration not stated) registered a melting point of 165 to 166 °C.
For `O=C(NCCCCC(NC(=O)OCC1c2ccccc2-c2ccccc21)C(=O)Oc1c(F)c(F)c(F)c(F)c1F)OCC1c2ccccc2Oc2ccccc21` (configuration not stated), the melting point was 150 to 152 °C.
With `Cn1cc(CC(=O)O)c(OCc2cc(OCc3ccc4ccccc4n3)no2)n1`, the melting point fell in the range of 124 to 125 °C.
`NC(=O)c1c(F)ccc([N+](=O)[O-])c1F` came in with a melting point of 134 to 135 °C.
Under `COC(=O)c1ccc(CC(C)(C)NCC(O)c2ccccc2)cc1` (configuration not stated) stands 125 °C; under `COc1cccc2c(-c3ccccc3)c([N+](=O)[O-])oc12`, 160 to 161 °C; under `CC(C)n1c(=O)c2c(-c3nc(C4CC4)no3)ncn2c2cccnc21`, 221 to 223 °C.
Compound `CC(C)(CO)Nc1nc(-c2cccc(C#N)c2)cs1` returned a melting point of 124 to 126 °C.
Regarding `CCC[C@@](CCc1ccccc1)(CC(=O)OCOc1ccc(-c2ccccc2)cc1)OCOc1ccc(-c2ccccc2)cc1`, the melting point lay within 104 to 106 °C.
Compound `CC(=O)NCCOC(=O)C(Oc1ccc(F)c(C(F)(F)F)c1)c1ccc(F)cc1` (configuration not stated) registered a melting point of 100 °C.
Under `Cc1oc(-c2ccc(C(F)(F)F)cc2)nc1-c1cccc(-c2ccc(OC(Cc3ccccc3)C(=O)O)cc2)c1` (configuration not stated) stands 148 to 149 °C.

The values above are taken from a melting point compilation (Tetko et al.; mined from patent text by program, amines drawn as free bases though some values may be those of a salt).
